Results: US20140051662A1 (priority 2011, published 2014)
Where two headings read alike, the source gives them in different places.

Columns and labels:
[1] = test system: FGFR3 expressing Ba/F3 cells; test: proliferation of FGFR3 expressing Ba/F3 cells; type: cell-based, mouse; details: FIG. 1A, dose-dependent
Procedure: [6-^3H] thymidine (Amersham Biosciences, UK) was added (1 μCi/well) for 16 hours. Thymidine incorporation was measured by liquid scintillation counting (Wallace, PerkinElmer). All experiments were performed in triplicate.

[2] = test system: intracellular domain of FGFR3; test: tyrosine phosphorylation in Ba/F3 cells (Western), FGFR3; type: cell-based, human; details: masitinib 1 μM, 10 ng/ml FGF
intrinsic PDGF receptor = test: tyrosine phosphorylation in Ba/F3 cells (Western), PDGF receptor positive control; type: cell-based; details: FIG. 1B
[3] = test system: LP1 cells (t(4;14) positive); test: thymidine proliferation assay, LP1; type: cell-based, human
Procedure: (§1) Multiple myeloma cell lines RPMI 8226, U266 (t(4;14) negative) and OPM2, LP1, NCI-H929 (t(4;14) positive) were cultured in RPMI medium (Gibco-BRL) supplemented with 10% fetal calf serum (FCS, Life Technologies), 100 units/ml penicillin, 100 μg/ml streptomycin, except LP1 which were cultured in DMEM (Gibco-BRL). Bone marrow plasma cells were CD138-selected using MACS systems (Miltenyi Biotec, Germany). […] [6-^3H] thymidine (Amersham Biosciences, UK) was added (1 μCi/well) for 16 hours. Thymidine incorporation was measured by liquid scintillation counting (Wallace, PerkinElmer). All experiments were performed in triplicate.

[4] = test system: NCI-H929 cells (t(4;14) positive); test: thymidine proliferation assay, NCI-H929; type: cell-based; details: Homo sapiens
Procedure: as §1

[5] = test system: RPMI 8226 cells (t(4;14) negative); test: thymidine proliferation assay, RPMI 8226; type: cell-based, human
Procedure: as §1

[6] = test system: U266 cells (t(4;14) negative); test: thymidine proliferation assay, U266; type: cell-based, human
Procedure: as §1

[7] = test system: OPM2 cells (t(4;14) positive); test: thymidine proliferation assay, OPM2; type: cell-based, human
Procedure: as §1

[8] = test system: fresh plasma cells from patients with t(4;14) multiple myeloma expressing FGFR3; test: proliferation of fresh plasma cells from patients; type: cell-based, human
Procedure: Bone marrow plasma cells were CD138-selected using MACS systems (Miltenyi Biotec, Germany). […] [6-^3H] thymidine (Amersham Biosciences, UK) was added (1 μCi/well) for 16 hours. Thymidine incorporation was measured by liquid scintillation counting (Wallace, PerkinElmer). All experiments were performed in triplicate.

[9] = test system: patients with relapsing or refractory multiple myeloma; test: open-label phase 2 study, masitinib plus bortezomib/dexamethasone (VD); type: in vivo, human
Text: Initially, this study was to investigate the safety and efficacy of masitinib administered in combination with the chemotherapy regimens of masitinib plus (dexamethasone/bortezomib/thalidomide); or masitinib plus (dexamethasone/bortezomib/adriamycin). However, after early preliminary results both these latter arms were eliminated from the study due to a tendency of higher incidence of adverse events or because these were not considered a gold standard treatment in this pathology. […] Velcade: 1.3 mg/m^2 intravenously; Level 1: Days 1 and 4; Level 2: Days 1, 4, 8 and 11 Dexamethasone: 40 mg/day, orally; Level 1: Days 1 to 4; Level 2: Days 1 to 4, 8 and 11 Adriamycin: 9 mg/m2 intravenously (bolus or perfusion); Days 1 to 4 Thalidomide: 200 mg/day, orally, once daily in the evening […] The two dosing regimens of the bortezomib plus dexamethasone combination (VD) were successively tested. After the observation that a low level of VD was well tolerated in four patients, the following patients were treated at a higher level. Included were patients with refractory or relapsing multiple myeloma: • With t(4; 14) translocation regardless of FGFR3 status, i.e. expressing FGFR3 or not; • or without a t(4; 14) translocation and relapsing within 1 year after the first line therapy including or not bone marrow transplantation. All patients were to receive combination therapy for the planned number of cycles or until disease progression, after which they could continue with masitinib plus dexamethasone in an extension phase.

Lyn = Lyn (Homo sapiens, UniProt P07948); test: inhibition of Lyn kinase
Lyn, sequence (P07948 whole entry, species assumed): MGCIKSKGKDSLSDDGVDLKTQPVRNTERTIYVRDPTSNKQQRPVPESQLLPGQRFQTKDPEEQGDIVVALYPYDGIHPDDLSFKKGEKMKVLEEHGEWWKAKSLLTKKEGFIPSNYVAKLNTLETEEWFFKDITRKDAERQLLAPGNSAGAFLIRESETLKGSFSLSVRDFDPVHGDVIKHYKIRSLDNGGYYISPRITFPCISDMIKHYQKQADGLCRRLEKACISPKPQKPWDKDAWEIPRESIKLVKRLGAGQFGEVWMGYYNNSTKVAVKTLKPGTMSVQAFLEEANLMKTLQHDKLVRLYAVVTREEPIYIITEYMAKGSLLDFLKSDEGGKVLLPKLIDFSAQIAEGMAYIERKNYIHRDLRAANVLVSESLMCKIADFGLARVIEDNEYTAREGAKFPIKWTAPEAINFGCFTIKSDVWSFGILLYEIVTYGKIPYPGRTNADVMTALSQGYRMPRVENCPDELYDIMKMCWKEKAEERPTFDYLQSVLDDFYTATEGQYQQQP

[10] = test system: patients with relapsed or refractory t(4;14) multiple myeloma
[11] = test system: human cord blood mast cells; details: cited from earlier work
[12] = 13 patients receiving VD as second line therapy (first relapse)
[13] = cohort VD Level 2, two patients
[14] = masitinib plus VD, all 17 patients
[15] = beyond first relapse, aggressive relapse
[16] = beyond first relapse, non-aggressive relapse
[17] = masitinib plus dexamethasone combination therapy
[18] = more than two previous lines (beyond first relapse)
[19] = second line of treatment (first relapse)

SMILES: Cc1ccc(NC(=O)c2ccc(CN3CCN(C)CC3)cc2)cc1Nc1nc(-c2cccnc2)cs1 [masitinib, 4-(4-methylpiperazin-1-ylmethyl)-N-[4-methyl-3-(4-pyridin-3ylthiazol-2-ylamino)phenyl]benzamide]
- growth of BaF3 cell expressing the intracellular kinase domain of FGFR3 [1]: inhibited
- phosphorylation of the intracellular domain of FGFR3 [2]: inhibited
- phosphorylation of the PDGF receptor (intrinsic PDGF receptor): Inhibition
- inhibition at 2 µM ([3]; Homo sapiens, LP-1): 50%
- anti-proliferative interaction with dexamethasone ([3]; combination with dexamethasone, FGF-activated LP1): synergy
- reduction of proliferation compared to dexamethasone alone ([3]; masitinib added to dexamethasone, 5 times less dexamethasone, FGF-activated LP1): 2 fold
- inhibition at 2 µM [4]: 50%
- effect on proliferation [5]: no effect
- proliferation ([6]; U266, t(4;14) negative): significantly and dose-dependently decreased
- anti-proliferative interaction with dexamethasone ([6]; combination with dexamethasone, U266): synergy
- reduction of proliferation compared to dexamethasone alone ([6]; masitinib added to dexamethasone, 5 times less dexamethasone, U266): 7 fold
- anti-proliferative interaction with dexamethasone ([7]; combination with dexamethasone): synergy
- reduction of proliferation compared to dexamethasone alone ([7]; masitinib added to dexamethasone, 5 times less dexamethasone): 2 fold
- proliferation [8]: inhibited
- Median PFS ([9]; 4 patients treated at level 1): 2.9 months
- Median OS [9, 12]: 22.3 months
- Median PFS [9, 12]: 9.3 months
- Median PFS ([9]; 13 patients treated at level 2): 7.4 months
- Median overall survival (OS) ([9]; 13 patients treated at level 2): 20.0 months
- patients with best response of partial response ([9]; VD as second line therapy, eleven of 12): 92%
- Median overall survival (OS) ([9]; all patients): 18.1 months
- grade 4 adverse event suspected to be treatment-related ([9]; cohort VD Level 1): No grade 4 adverse event
- patients with at least one AE suspected to be treatment-related ([9]; cohort VD Level 1, 4 patients): All patients
- patients with at least one AE suspected to be treatment-related ([9]; cohort VD Level 2, 8 of 13 patients): 62%
- patients with a grade 3 AE suspected to be treatment-related [9, 13]: 15%
- patients with at least one grade 4 AE suspected to be treatment-related [9, 13]: 15%
- patients still alive at the cut-off date ([9]; five of 17 VD patients, 31 Mar. 2010): 29%
- patients with a very good partial response ([9]; intent-to-treat population): five
- response rate (complete response or partial response) ([9]; intent-to-treat population): 75%
- patients with at least one AE suspected to be treatment-related [9, 14]: 71%
- patients with at least one grade 4 AE suspected to be treatment-related [9, 14]: 12%
- median progression free survival (PFS) ([9]; overall VD population): 7.4 months
- response rate (complete response or partial response) ([9]; per-protocol population): 86%
- Median OS ([9]; t(4;14) negative patients): 25.3 months
- Median PFS ([9]; t(4;14) negative patients): 9.3 months
- patients with best response of partial response ([9]; t(4;14) negative patients, three of five): 60%
- Median OS ([9]; t(4;14) positive patients): 17.1 months
- Median PFS ([9]; t(4;14) positive patients): 5.9 months
- patients with best response of partial response ([9]; t(4;14) positive patients, 8 out of 10): 80%
- concentrations at which the kinase is inhibited (Lyn): submicromolar
- patients with rashes ([10]; 2 patients): 8.3%
- patients with suspected diarrhea ([10]; 10 patients): 41.7%
- patients with drug-related edema ([10]; 13 patients): 54.2%
- patients with nausea and/or vomiting ([10]; 16 patients, suspected AE): 66.7%
- patients with suspected masitinib-related (or not assessable) adverse events ([10]; 21 of 24 patients): 87.5%
- suspected masitinib-related (or not assessable) adverse events, total number ([10]; 24 patients): 145
- median overall survival ([10]; all 24 patients): 19.8 months
- median progression free survival (PFS) ([10]; all 24 patients): 3.9 months
- survival ([10]; all patients with unsatisfactory response to previous treatment or in first relapse): at least 1 year
- median overall survival [10, 15]: 8.1 months
- median progression free survival (PFS) [10, 15]: 2.1 months
- median overall survival [10, 16]: 25.4 months
- median progression free survival (PFS) [10, 16]: 3.9 months
- patients who discontinued because of AEs suspected to be masitinib-related ([10]; five patients): 20.8%
- patients with severe edema ([10]; in vivo): two
- patients with severe nausea ([10]; in vivo): Three
- patients with Minor Response [10, 17]: 5 patients
- patients with very good partial response (IMWG criteria) [10, 17]: one
- response in patients with aggressive relapse [10, 17]: No response
- median overall survival [10, 18]: 8.6 months
- median progression free survival (PFS) [10, 18]: 3.0 months
- patients still alive after 2 years ([10]; overall): 43.5%
- median overall survival [10, 19]: 35.7 months
- median progression free survival (PFS) [10, 19]: 9.1 months
- patients with at least one suspected masitinib-related (or not assessable) serious adverse event ([10]; seven patients): 29.2%
- patients with severe suspected adverse events (non-hematological grade 3/4) ([10]; seven patients): 29.2%
- patients with acute renal failure ([10]; severe): two
- FcεRI-mediated degranulation [11]: inhibition
